Data reported in patent US10125119B2, “Series of resveratrol-derivative fluorescently labeled molecules and synthesis method thereof” (Hangzhou Normal University, priority 2017, dated 2018).

## COc1cc(/C=C/c2ccc(Oc3nc(Cl)nc(-n4cc(-c5ccc(C(=C(c6ccccc6)c6ccccc6)c6ccccc6)cc5)nn4)n3)cc2)cc(OC)c1 [Product (I)]
  melting point: 165 to 166 °C
